Results reported in patent US9920061B2, “Imidazo[1,5-A]pyrimidinyl carboxamide compounds and their use in the treatment of medical disorders” (Lysosomal Therapeutics Inc., priority 2016, dated 2018).
≈ marks a conversion by molar mass, not a printed value. Where two headings read alike, the source gives them in different places.

Tests used:
[1] = biological target: T1, glucocerebrosidase (Gcase) (Homo sapiens, UniProt P04062); experiment: Glucocerebrosidase (Gcase) activation assay, 4-methylumbelliferyl-beta-D-glucopyranoside substrate, with saposin C; format: biochemical
T1 sequence (P04062 40-536): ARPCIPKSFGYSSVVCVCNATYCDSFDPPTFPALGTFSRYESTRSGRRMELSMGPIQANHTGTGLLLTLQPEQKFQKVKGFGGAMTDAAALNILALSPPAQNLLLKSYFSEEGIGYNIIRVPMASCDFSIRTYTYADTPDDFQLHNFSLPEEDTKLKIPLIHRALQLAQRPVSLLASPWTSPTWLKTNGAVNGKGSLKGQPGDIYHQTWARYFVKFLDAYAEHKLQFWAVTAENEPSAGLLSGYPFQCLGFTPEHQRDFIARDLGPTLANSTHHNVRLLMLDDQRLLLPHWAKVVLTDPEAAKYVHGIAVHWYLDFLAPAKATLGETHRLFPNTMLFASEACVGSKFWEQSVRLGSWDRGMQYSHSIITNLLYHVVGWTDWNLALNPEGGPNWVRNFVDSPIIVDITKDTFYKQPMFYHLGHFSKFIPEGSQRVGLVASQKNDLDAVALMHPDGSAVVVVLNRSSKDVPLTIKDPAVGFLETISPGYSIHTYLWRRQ
Experimental: The ability of exemplary compounds to activate glucocerebrosidase (Gcase) was measured.
A 484 μL aliquot of a 1.0 mg/mL solution of phosphatidylserine (PS) (Sigma P7769) in chloroform was evaporated under a stream of nitrogen for 1 hour. The lipid film was dissolved over 4 minutes of vigorous vortexing in 40 mL of 176 mM K2HPO4/50 mM citric acid (pH 4.7) containing 7.5 μL of triton X-100, resulting in a mixed micellar preparation with a composition of 0.32 mM triton and 0.37 mol % PS. 4-Methylumbelliferyl-beta-D-glucopyranoside (ACROS-337025000) was dissolved in the micellar solution to a final concentration of 2 mM for use as the reaction substrate.
Test compounds were diluted to the desired concentrations with dimethylsulfoxide (DMSO) from 10 mM stocks, and 0.41 μL of the DMSO compound mixture was added to 100 μL of micellar solution containing 10 nM GCase and 100 nM saposin C (Enzo ALX-201-262-C050). Pre-incubation was allowed to occur for 30 minutes at room temperature, after which the reaction was initiated by combining 25 μL of substrate solution with 25 μL of compound/GCase/saposin mixture. The reaction proceeded for 15 minutes at room temperature and was stopped by adding 150 μL of 1M glycine, pH 12.5. The endpoint of the reaction was monitored by measuring fluorescence intensity (excitation: 365 nm; emission: 440 nm) on a SpectraMax i3 instrument (Molecular Devices). Test compounds were screened at 1.0 and 0.1 μM final concentration, and subsequent 8-point dose response curves were obtained using 3-fold dilutions from a maximum final concentration of […].

[2] = Compound solubility in water; format: physicochemical
[3] = 0.1 μM test compound, read-out: Percent Gcase Activation 0.1 μM Test Compound
[4] = 1 μM test compound, read-out: Percent Gcase Activation 1 μM Test Compound
[5] = test compound at 0.1 μM, read-out: Percent Gcase Activation, 0.1 μM Test Compound
[6] = test compound at 1.0 μM, read-out: Percent Gcase Activation, 1 μM Test Compound

SMILES | activation at 0.1 µM [1, 3] [%] | activation at 1 µM [1, 4] [%] | solubility [2] [µg/mL] | activation at 0.1 µM [1, 5] [%] | activation at 1 µM [1, 6] [%] | solubility ([2]; in water) [µg/mL]
Cc1cc(-c2ncccn2)nc2c(C(=O)NC(C)(C)C3CC3)ncn12 [III-95] | < 10 | < 30 | 6.4 (≈ 19 µM) | – | – | –
Cc1cc(-c2cc(Cl)ccn2)nc2c(C(=O)N[C@@H](C)C3CC3)ncn12 [III-104] | 10 to 20 | > 60 | 8 (≈ 22.5 µM) | – | – | –
Cc1cc(-c2cccc(Cl)n2)nc2c(C(=O)N[C@@H](C)C3CC3)ncn12 [III-103] | < 10 | > 60 | 3.8 (≈ 10.7 µM) | – | – | –
COc1cc(-c2cc(C)n3cnc(C(=O)N[C@@H](C)C4CC4)c3n2)ccn1 [III-99] | < 10 | < 30 | 25.6 (≈ 72.8 µM) | – | – | –
Cc1cc(-c2ccccc2F)nc2c(C(=O)NC(C)C3CC3)ncn12 (stereo not drawn) [III-51] | < 10 | > 60 | 22.7 (≈ 67.1 µM) | – | – | –
C#Cc1cccc(C2(NC(=O)c3ncn4c(C)cc(C)nc34)CC2)c1 [III-2] | < 10 | 30 to 60 | 19.7 (≈ 59.6 µM) | – | – | –
COCc1cc(-c2ccc(F)cc2)nc2c(C(=O)N[C@@H](C)C3CC3)ncn12 [III-36] | 10 to 20 | > 60 | 22 (≈ 59.7 µM) | – | – | –
Cc1cc(C)n2cnc(C(=O)NC(C3CC3)C(F)(F)F)c2n1 (stereo not drawn) [III-14] | < 10 | 30 to 60 | 37.8 (≈ 121 µM) | – | – | –
CNc1cc(C)nc2c(C(=O)NC(c3ccc(F)cc3)C(F)(F)F)ncn12 (stereo not drawn) [III-18] | > 20 | > 60 | 1.7 (≈ 4.46 µM) | – | – | –
Cc1cc(N2CCCC(F)(F)C2)nc2c(C(=O)NC(C)(C)C3CC3)ncn12 [III-92] | 10 to 20 | > 60 | 9.6 (≈ 25.4 µM) | – | – | –
Cc1cc(-c2ccccn2)nc2c(C(=O)NC(C)C3CC3)ncn12 (stereo not drawn) [III-44] | < 10 | < 30 | 26 (≈ 80.9 µM) | – | – | –
Cc1cc(-c2cccnc2)nc2c(C(=O)N[C@H]3CC[C@H](OCC(C)C)CC3)ncn12 [III-66] | < 10 | 30 to 60 | 16 (≈ 39.3 µM) | – | – | –
Cc1cc(-c2ccnc(Cl)c2)nc2c(C(=O)N[C@@H](C)C3CC3)ncn12 [III-106] | < 10 | 30 to 60 | 12.8 (≈ 36 µM) | – | – | –
Cc1cc(-c2ccc(F)c(Cl)n2)nc2c(C(=O)N[C@@H](C)C3CC3)ncn12 [III-108] | < 10 | 30 to 60 | 14.5 (≈ 38.8 µM) | – | – | –
Cc1cc(-c2cccnc2)nc2c(C(=O)NC(C)C3CC3)ncn12 (stereo not drawn) [III-43] | < 10 | < 30 | 31.1 (≈ 96.8 µM) | – | – | –

The remaining lines, values ahead:

activation at 0.1 µM [1, 3] [%] | activation at 1 µM [1, 4] [%] | solubility [2] [µg/mL] | activation at 0.1 µM [1, 5] [%] | activation at 1 µM [1, 6] [%] | solubility ([2]; in water) [µg/mL] | SMILES
> 20 | > 60 | 0.5 (≈ 1.23 µM) | – | – | – | COc1cccc(-c2cc(C)n3cnc(C(=O)NC(C4CC4)C(F)(F)F)c3n2)n1 (stereo not drawn) [III-147]
– | – | – | 10 to 20 | > 60 | 2.7 (≈ 7.14 µM) | COc1cccc(-c2cc(C)n3cnc(C(=O)N[C@H](C)C(F)(F)F)c3n2)c1 [IV-21]
> 20 | > 60 | 2.1 (≈ 6.03 µM) | – | – | – | C#CC(C)(C)NC(=O)c1ncn2c(C)cc(-c3cccc(OC)c3)nc12 [III-157]
– | – | – | 10 to 20 | > 60 | 13.2 (≈ 34.6 µM) | Cc1cc(-c2cnsc2)nc2c(C(=O)N[C@@H](C3CC3)C(F)(F)F)ncn12 [IV-53]
– | – | – | > 20 | > 60 | 0.5 (≈ 1.37 µM) | Cc1cc(-c2cccc3c2OCO3)nc2c(C(=O)N[C@@H](C)C3CC3)ncn12 [IV-30]
– | – | – | > 20 | > 60 | 5.9 (≈ 14.6 µM) | Cc1cc(-c2cc(C#N)cs2)nc2c(C(=O)NC(C3CC3)C(F)(F)F)ncn12 (stereo not drawn) [IV-85]
– | – | – | 10 to 20 | > 60 | 15.9 (≈ 48.3 µM) | CCc1cc(-c2ccns2)nc2c(C(=O)NC(C)(C)C)ncn12 [IV-105]
– | – | – | < 10 | < 30 | 15.6 (≈ 41.6 µM) | COc1c(C#N)cccc1-c1cc(C)n2cnc(C(=O)N[C@@H](C)C3CC3)c2n1 [IV-65]
10 to 20 | > 60 | 18.6 (≈ 57 µM) | – | – | – | CC[C@H](C)NC(=O)c1ncn2c(C)cc(-c3cccc(F)c3)nc12 [III-132]
– | – | – | > 20 | > 60 | 0.4 (≈ 0.958 µM) | Cc1cc(-c2cccc(F)c2C#N)nc2c(C(=O)NC(C3CC3)C(F)(F)F)ncn12 (stereo not drawn) [IV-38]
> 20 | > 60 | 0.1 (≈ 0.281 µM) | – | – | – | COc1cc(F)cc(-c2cc(C)n3cnc(C(=O)NC(C)(C)C)c3n2)c1 [III-126]
> 20 | > 60 | 1.5 (≈ 3.71 µM) | – | – | – | COc1cccc(-c2cc(C)n3cnc(C(=O)NC(C4CC4)C(F)(F)F)c3n2)c1 (stereo not drawn) [III-182]
> 20 | > 60 | 3.8 (≈ 9.51 µM) | – | – | – | Cc1cc(-c2cccc(C#N)c2)nc2c(C(=O)NC(C3CC3)C(F)(F)F)ncn12 (stereo not drawn) [III-152]
> 20 | > 60 | 0.7 (≈ 1.73 µM) | – | – | – | Cc1cc(-c2cccc(OC3CC3)c2)nc2c(C(=O)NC(C)C(F)(F)F)ncn12 (stereo not drawn) [III-169]
< 10 | 30 to 60 | 14.3 (≈ 43.8 µM) | – | – | – | Cc1cc(OC2CC2)nc2c(C(=O)NC(C3CC3)C3CC3)ncn12 [III-179]
– | – | – | < 10 | 30 to 60 | 4.2 (≈ 11.3 µM) | Cc1cc(-n2ccc(Cl)n2)nc2c(C(=O)NC(C)C(F)(F)F)ncn12 (stereo not drawn) [IV-74]
– | – | – | > 20 | > 60 | 1.5 (≈ 3.55 µM) | COc1ccc(-c2cc(C)n3cnc(C(=O)NC(C4CC4)C(F)(F)F)c3n2)cc1F (stereo not drawn) [IV-70]
– | – | – | < 10 | < 30 | 3.3 (≈ 7.96 µM) | Cc1cc(-c2cccc3nccn23)nc2c(C(=O)NC(C3CC3)C(F)(F)F)ncn12 (stereo not drawn) [IV-25]
– | – | – | > 20 | > 60 | 27.5 (≈ 68.7 µM) | CCCCO[C@H]1C[C@H]2CC[C@@H](C1)[C@H]2NC(=O)c1ncn2c(COC)cc(C)nc12 [IV-2]
< 10 | 30 to 60 | 8.8 (≈ 24.8 µM) | – | – | – | Cc1cc(Oc2cccc(F)c2)nc2c(C(=O)N[C@@H](C)C3CC3)ncn12 [III-119]
– | – | – | > 20 | > 60 | 0.8 (≈ 2.04 µM) | Cc1cc(-c2ccc(F)cc2)nc2c(C(=O)N[C@@H](C3CC3)C(F)(F)F)ncn12 [IV-46]
> 20 | > 60 | 4.2 (≈ 11.2 µM) | – | – | – | COc1cccc(-c2cc(C)n3cnc(C(=O)NC(C4CC4)C4CC4)c3n2)c1 [III-172]
